Measurements reported in ChEMBL document CHEMBL1201862, “PubChem BioAssay data set” (2004).
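Each compound was tested at five concentrations against cells in 96-well plates for 48 hours. At the GI50, growth is halved.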 Calls of active or inactive are those of the source. No stated cut-off is given here; in the data, active = GI50 up to about 1.1 µM and inactive = higher.

Tests used:
Assay in all cases: inhibition of tumour cell growth, NCI panel, 48 h
[1] = system: NCI-H522
[2] = system: M14
[3] = system: SF-268
[4] = system: SF-539
[5] = system: HOP-92
[6] = system: EKVX
[7] = system: CAKI-1
[8] = system: IGROV-1
[9] = system: UACC-257
[10] = system: SNB-75
[11] = system: HT-29
[12] = system: HCT-15
[13] = system: LOX IMVI
[14] = system: SK-MEL-2
[15] = system: SR
[16] = system: SNB-19
[17] = system: CCRF-CEM
[18] = system: UACC-62
[19] = system: RPMI-8226
[20] = system: OVCAR-4

Row | Compound | GI50 [1] | GI50 [2] | GI50 [3] | GI50 [4] | GI50 [5] | GI50 [6] | GI50 [7] | GI50 [8] | GI50 [9] | GI50 [10] | GI50 [11] | GI50 [12] | GI50 [13] | GI50 [14] | GI50 [15] | GI50 [16] | GI50 [17] | GI50 [18] | GI50 [19] | GI50 [20]
1 | CC(C)=CCC/C(C)=C/C=C/C(C)=C/C1C[C@@]2(C(O)O1)[C@H](CCCO)/C(=C(/C)C=O)CC[C@]2(C)O (some centres not stated) | 19.5 µM (inactive) | 13.5 µM (inactive) | 15.2 µM (inactive) | 12.2 µM (inactive) | < 0.01 µM (active) | 11.9 µM (inactive) | 11.6 µM (inactive) | 22.3 µM (inactive) | 25.4 µM (inactive) | 51.9 µM (inactive) | 16.4 µM (inactive) | 16.3 µM | 11.7 µM (inactive) | 18.6 µM (inactive) | 14.6 µM (inactive) | 19.1 µM (inactive) |  |  |  | 
2 | Cc1ccc(NC(=O)OCC(COc2ccc(Cl)cc2)OC(=O)Nc2ccc(C)cc2)cc1 (configuration not stated) | 29.8 µM (inactive) | 17.1 µM (inactive) | 22.5 µM (inactive) | 21.6 µM (inactive) | 11.1 µM (inactive) | 70.3 µM (inactive) | 15.7 µM (inactive) | 9.79 µM (inactive) | 21.9 µM (inactive) | 14.5 µM (inactive) | 15.2 µM (inactive) | 29.7 µM | 21.2 µM (inactive) | 15 µM (inactive) | > 100 µM (inactive) | 19.6 µM (inactive) | 9.93 µM (inactive) | 19.1 µM (inactive) | 9.77 µM (inactive) | 13.7 µM (inactive)
3 | CCOC(=O)N1C=NC23C(c4ccccc4)C(c4ccccc4)C12C(=O)N(C)C(=O)N3C (configuration not stated) | > 100 µM (inactive) | > 100 µM (inactive) | > 100 µM (inactive) |  | > 100 µM (inactive) | > 100 µM (inactive) | > 100 µM (inactive) | > 100 µM (inactive) | > 100 µM (inactive) | > 100 µM (inactive) | > 100 µM (inactive) | > 100 µM | > 100 µM (inactive) | > 100 µM (inactive) | > 100 µM (inactive) | > 100 µM (inactive) | > 100 µM (inactive) | > 100 µM (inactive) | 44.2 µM (inactive) | > 100 µM (inactive)
4 | c1cncc(O[Si](Oc2cccnc2)(Oc2cccnc2)Oc2cccnc2)c1 |  | > 100 µM (inactive) |  | > 100 µM (inactive) |  | > 100 µM (inactive) | > 100 µM (inactive) | > 100 µM (inactive) | > 100 µM (inactive) | > 100 µM (inactive) | > 100 µM (inactive) | > 100 µM | > 100 µM (inactive) | > 100 µM (inactive) | > 100 µM (inactive) | > 100 µM (inactive) |  | > 100 µM (inactive) |  | > 100 µM (inactive)
5 | CCCCNC(=O)N/C=C1\C(=O)Oc2ccccc2C1=O |  | 41.7 µM (inactive) | 34.4 µM (inactive) | 39.4 µM (inactive) | 24.9 µM (inactive) | > 100 µM (inactive) |  | 37.1 µM (inactive) | 55.7 µM (inactive) |  | > 100 µM (inactive) | 28.8 µM | 70.1 µM (inactive) | 20.1 µM (inactive) | 57.5 µM (inactive) | 26.5 µM (inactive) |  | 33.4 µM (inactive) | 55.7 µM (inactive) | 57.3 µM (inactive)
6 | Cn1c(=O)c(-c2ccccc2)c(N=[N+]=[N-])c2ccccc21 | 26 µM (inactive) | 63.2 µM (inactive) | 39.5 µM (inactive) | 54 µM (inactive) | 17.9 µM (inactive) |  | 29.4 µM (inactive) | > 100 µM (inactive) | > 100 µM (inactive) | 4.46 µM (inactive) | 23.5 µM (inactive) | 39.4 µM |  |  | 25.3 µM (inactive) | > 100 µM (inactive) | 30.8 µM (inactive) | 42.3 µM (inactive) |  | 56.5 µM (inactive)
7 | N#Cc1ccc(C2Oc3ccc(Cl)cc3C=C2[N+](=O)[O-])cc1 (configuration not stated) | 1.34 µM (inactive) | 1.36 µM (inactive) | 1.91 µM (inactive) | 1.87 µM (inactive) | 1.39 µM (inactive) | 1.75 µM (inactive) | 1.52 µM (inactive) | 1.61 µM (inactive) | 2.4 µM (inactive) | 1.47 µM (inactive) | 2.4 µM (inactive) | 1.07 µM | 1.04 µM (active) | 1.74 µM (inactive) | 0.157 µM (active) | 2.67 µM (inactive) | 0.219 µM (active) | 1.63 µM (inactive) | 0.334 µM (active) | 1.79 µM (inactive)
8 | CC(O)C(CO)NC(=O)C1CSSCC(NC(=O)C(N)Cc2ccccc2)C(=O)NC(Cc2ccccc2)C(=O)NC(Cc2c[nH]c3ccccc23)C(=O)NC(CCCCN)C(=O)NC(C(C)O)C(=O)N1 (configuration not stated) | > 100 µM (inactive) | > 100 µM (inactive) | > 100 µM (inactive) | > 100 µM (inactive) | > 100 µM (inactive) | > 100 µM (inactive) | > 100 µM (inactive) | > 100 µM (inactive) | > 100 µM (inactive) | > 100 µM (inactive) | > 100 µM (inactive) | > 100 µM | > 100 µM (inactive) |  | > 100 µM (inactive) | > 100 µM (inactive) | > 100 µM (inactive) | > 100 µM (inactive) | > 100 µM (inactive) | > 100 µM (inactive)
9 | CNC(=S)Nc1sc2c(c1C#N)CCCC2 | > 75 µM (inactive) |  | > 75 µM (inactive) |  |  | > 75 µM (inactive) | > 75 µM (inactive) | > 75 µM (inactive) | > 75 µM (inactive) | > 75 µM (inactive) | > 75 µM (inactive) | > 75 µM | > 75 µM (inactive) | > 75 µM (inactive) | > 75 µM (inactive) | > 75 µM (inactive) |  | > 75 µM (inactive) | > 75 µM (inactive) | > 75 µM (inactive)
10 | Cc1cc2c(cc1C)[n+]([O-])c(C#N)c(Cl)[n+]2[O-] | 11 µM (inactive) |  | 18.1 µM (inactive) | 14.3 µM (inactive) | 16.2 µM (inactive) | 6.59 µM (inactive) | 6.46 µM (inactive) | 10.6 µM (inactive) | 13.8 µM (inactive) | 1.88 µM (inactive) | 4.44 µM (inactive) | 4.35 µM | 12.1 µM (inactive) | 17.4 µM (inactive) | 3.82 µM (inactive) | 34.3 µM (inactive) | 4.92 µM (inactive) | 11.7 µM (inactive) | 12.3 µM (inactive) | 13.9 µM (inactive)
11 | N=S(=O)(c1ccccc1)c1ccccc1[N+](=O)[O-] (configuration not stated) | > 100 µM (inactive) | > 100 µM (inactive) |  | > 100 µM (inactive) |  | > 100 µM (inactive) | > 100 µM (inactive) | > 100 µM (inactive) | > 100 µM (inactive) | > 100 µM (inactive) | > 100 µM (inactive) | > 100 µM |  | 68.5 µM (inactive) | > 100 µM (inactive) | > 100 µM (inactive) | > 100 µM (inactive) | > 100 µM (inactive) | > 100 µM (inactive) | > 100 µM (inactive)
12 | CN1CN(c2ccccc2)C2(CCNCC2)C1=O | > 100 µM (inactive) | > 100 µM (inactive) | > 100 µM (inactive) | > 100 µM (inactive) | > 100 µM (inactive) | > 100 µM (inactive) | > 100 µM (inactive) | > 100 µM (inactive) | > 100 µM (inactive) | > 100 µM (inactive) | > 100 µM (inactive) | > 100 µM | > 100 µM (inactive) | > 100 µM (inactive) | > 100 µM (inactive) | > 100 µM (inactive) | > 100 µM (inactive) | > 100 µM (inactive) | > 100 µM (inactive) | > 100 µM (inactive)
13 | SC1=Nc2ccccc2-c2nc(-c3ccccc3)cc(-c3ccc(Br)cc3)c2C1 | 1.68 µM (inactive) | 2.4 µM (inactive) | 2.1 µM (inactive) | 3.27 µM (inactive) | 1.95 µM (inactive) | 1.33 µM (inactive) | 1.5 µM (inactive) | 1.22 µM (inactive) | 3.15 µM (inactive) | 1.26 µM (inactive) | 2.07 µM (inactive) | 3.54 µM | 2.99 µM (inactive) | 6.47 µM (inactive) |  | 1.21 µM (inactive) | 1.88 µM (inactive) | 2.26 µM (inactive) | 15.8 µM (inactive) | 0.433 µM (active)
